Patent publication US4835152A, “1-(4-Aminophenyl)-4-methyl-7,8-methylenedioxy-3,4-dihydro-5H-2,3-b enzodiazepine and acid addition salts thereof same” (Biogal Gyogyszergyar, priority 1986, dated 1989)

Key:
[1] = test system: oxotremorine-induced salivation; experiment: Inhibition of oxotremorine-induced salivation in mice; type: in vivo, male CFLP mice; details: 6.25-25.0 mg/kg p.o.
Procedure: (§1) 4. Inhibition of oxotremorine in mice
(§2) The examinations were carried out according to the method of R. C. Rathbun and I. H. Slater [Psychopharm. 4, 114 (1963)]. One hour after male, starving CFLP mice were orally pre-treated with a dose of 6.25, 12.5 or 25.0 mg/kg of the compound of Example 1, they were intraperitoneally treated with a dose of 1 mg/kg of 1-[4-(1-pyrrolidinyl)-2-butinyl]-2-pyrrolidinone (oxotremorine).
(§3) The inhibition of oxotremorine-induced tremor and salivation exerted by the compound of Example 1 was measured in relation to the control group treated with oxotremorine only. The strength of the inhibition was expressed in scores (0, 0.5, 1, 2 or 3).

[2] = test system: oxotremorine-induced tremor; experiment: Inhibition of oxotremorine-induced tremor in mice (method of Rathbun and Slater); type: in vivo, male CFLP mice; details: for Inhibition in relation to control group: oxotremorine 1 mg/kg i.p. 1 h later
Procedure: as §1, §2, §3

Emetic side-effect = details: in vivo
[3] = test system: haloperidol-induced decrease in SMA; experiment: Measurement of the haloperidol-antagonistic effect in mice (spontaneous motor activity, SMA); type: in vivo, male CFLP mice
Procedure: 2. Measurement of the haloperidol-antagonistic effect in mice
Male CFLP mice weighing 20 to 22 g were treated intraperitoneally with a dose of 0.5 mg/kg of 4-[4-(4-chlorophenyl)-4-hydroxy-1-piperidinyl]-1-(4-fluorophenyl)-1-butanone (haloperidol) and the spontaneous motor activity (SMA) was measured, in relation to the data obtained in the controls, by a capacitance-sensitive motimeter. Another group of the test animals was treated also with a dose of 30 mg/kg of the compound of Example 1, 15 minutes after the administration of haloperidol.

[4] = Motility studies on mice (spontaneous motor activity, two-hour experiment); type: in vivo, male mice; details: for Increase in motility: 2 h
Procedure: 1.a. Motility studies on mice
For studying how the compound prepared according to Example 1 increases the motility in male mice, two-hour experiments were carried out. In order to determine the spontaneous motor activity, the component of hunger-activitywas excluded (the mice were not fasted), thus only the exploratory activity was recorded. The test animals were placed into the observation box immediately after the intraperitoneal treatment.

Acute toxicity in rats = details: rat, in vivo
Source text: (§4) The acute toxicity values (LD50) of the compound of Example 1: […]

Acute toxicity in mice = details: mouse, in vivo
Source text: as §4

[5] = Motility studies on rats (2 hours); type: in vivo, male CFY rats; details: for Increase in motility: 2 h
Procedure: 1.b. Motility studies on rats
Male CFY rats weighing 120 to 140 g were treated intraperitoneally in groups of three with a dose of 10, 20, 25 or 30 mg/kg of the compound of Example 1, and were immediately placed into the observation box. The experiment lasted for 2 hours.

[6] = Dependence studies, DAF (drug admixed food) method; details: 0.05% (w/w) in food, 6 weeks, average daily dose 40 mg/kg, two weeks after withdrawal, listed as compound of the invention
[7] = Examination of stereotypy in rats (method of Costall and Naylor); type: in vivo; set-up: Stereotypy, average score: scale not given here
Source text: 3. Examination of stereotypy in rats
For the measurement of stereotypy the method of B. Costall and R. I. Naylor [Eur. J. Pharmacol. 18, 95 (1972)] was used. The score values in Table 4 are average score values obtained at the time of reading.

## CC1Cc2cc3c(cc2C(c2ccc(N)cc2)=NN1)OCO3 (stereo not drawn) [Example 1, 1-(4-aminophenyl)-4-methyl-7,8-methylenedioxy-3,4-dihydro-5H-2,3-benzodiazepine]
[1]
  Effect on oxotremorine-induced salivation (in words): does not inhibit the oxotremorine-induced salivation
[2]; 6.25 mg/kg p.o.
  Inhibition in relation to control group: 17%
[2]; 12.5 mg/kg p.o.
  Inhibition in relation to control group: 50%
[2]; 25.0 mg/kg p.o.
  Inhibition in relation to control group: 74%
[2]; Mus musculus, po, range (9.5-19.1) printed in the next line
  ED50: 13.5 mg/kg
[2]; mice
  Effect on oxotremorine-induced tremor (in words): significantly decreases the tremor
Emetic side-effect
  Emetic side-effect: does not have the unfavourable side-effects of the known psychostimulants (emetic effect, proneness to dependence)
[3]; 30 mg/kg, 15 min after haloperidol 0.5 mg/kg i.p.
  Antagonism of haloperidol-induced decrease in SMA: significantly antagonized
[3]; haloperidol 0.5 mg/kg i.p. + compound of Example 1 30 mg/kg i.p. 15 min later
  Decrease in SMA: 17.1%
[4]; 3 mg/kg i.p.
  Increase in motility: 15%
[4]; 10 mg/kg i.p.
  Increase in motility: 131%
[4]; 30 mg/kg i.p.
  Increase in motility: 473%
[4]; i.p.
  Effect on motility or spontaneous motor activity (in words): increases the motility or spontaneous motor activity of mice and rats in a dose-dependent manner
Acute toxicity in rats; ip
  LD50: 250 mg/kg
Acute toxicity in rats; po
  LD50: 350 mg/kg
Acute toxicity in mice; ip
  LD50: 260 mg/kg
Acute toxicity in mice; po
  LD50: 300 mg/kg
[5]; 10 mg/kg i.p.
  Increase in motility: 21%
[5]; 20 mg/kg i.p.
  Increase in motility: 87%
[5]; 25 mg/kg i.p.
  Increase in motility: 106%
[5]; 30 mg/kg i.p.
  Increase in motility: 462%
[5]; i.p.
  Effect on motility or spontaneous motor activity (in words): increases the motility or spontaneous motor activity of mice and rats in a dose-dependent manner
[6]
  Withdrawal symptoms or signs of dependence: does not have the unfavourable side-effects of the known psychostimulants (emetic effect, proneness to dependence)
[7]; 3.125 mg/kg i.p., 15 min
  Stereotypy, average score: 0.3
[7]; 3.125 mg/kg i.p., 30 min
  Stereotypy, average score: 0.3
[7]; 3.125 mg/kg i.p., 60 min
  Stereotypy, average score: 0.1
[7]; 3.125 mg/kg i.p., 90 min
  Stereotypy, average score: 0
[7]; 3.125 mg/kg i.p., 120 min
  Stereotypy, average score: 0
[7]; 3.125 mg/kg i.p., 180 min
  Stereotypy, average score: 0
[7]; 3.125 mg/kg i.p., 240 min
  Stereotypy, average score: 0
[7]; 6.25 mg/kg i.p., 15 min
  Stereotypy, average score: 1.0
[7]; 6.25 mg/kg i.p., 30 min
  Stereotypy, average score: 1.3
[7]; 6.25 mg/kg i.p., 60 min
  Stereotypy, average score: 0.3
[7]; 6.25 mg/kg i.p., 90 min
  Stereotypy, average score: 0
[7]; 6.25 mg/kg i.p., 120 min
  Stereotypy, average score: 0
[7]; 6.25 mg/kg i.p., 180 min
  Stereotypy, average score: 0
[7]; 6.25 mg/kg i.p., 240 min
  Stereotypy, average score: 0
[7]; 6.25 mg/kg p.o., 15 min
  Stereotypy, average score: 0.7
[7]; 6.25 mg/kg p.o., 30 min
  Stereotypy, average score: 0.7
[7]; 6.25 mg/kg p.o., 60 min
  Stereotypy, average score: 0.6
[7]; 6.25 mg/kg p.o., 90 min
  Stereotypy, average score: 0
[7]; 6.25 mg/kg p.o., 120 min
  Stereotypy, average score: 0
[7]; 6.25 mg/kg p.o., 180 min
  Stereotypy, average score: 0
[7]; 6.25 mg/kg p.o., 240 min
  Stereotypy, average score: 0
[7]; 12.5 mg/kg i.p., 15 min
  Stereotypy, average score: 1.2
[7]; 12.5 mg/kg i.p., 30 min
  Stereotypy, average score: 1.3
[7]; 12.5 mg/kg i.p., 60 min
  Stereotypy, average score: 1.1
[7]; 12.5 mg/kg i.p., 90 min
  Stereotypy, average score: 1.0
[7]; 12.5 mg/kg i.p., 120 min
  Stereotypy, average score: 0
[7]; 12.5 mg/kg i.p., 180 min
  Stereotypy, average score: 0
[7]; 12.5 mg/kg i.p., 240 min
  Stereotypy, average score: 0
[7]; 12.5 mg/kg p.o., 15 min
  Stereotypy, average score: 0.4
[7]; 12.5 mg/kg p.o., 30 min
  Stereotypy, average score: 0.9
[7]; 12.5 mg/kg p.o., 60 min
  Stereotypy, average score: 1.4
[7]; 12.5 mg/kg p.o., 90 min
  Stereotypy, average score: 0.4
[7]; 12.5 mg/kg p.o., 120 min
  Stereotypy, average score: 0
[7]; 12.5 mg/kg p.o., 180 min
  Stereotypy, average score: 0
[7]; 12.5 mg/kg p.o., 240 min
  Stereotypy, average score: 0
[7]; 25.0 mg/kg i.p., 15 min
  Stereotypy, average score: 1.3
[7]; 25.0 mg/kg i.p., 30 min
  Stereotypy, average score: 1.5
[7]; 25.0 mg/kg i.p., 60 min
  Stereotypy, average score: 1.8
[7]; 25.0 mg/kg i.p., 90 min
  Stereotypy, average score: 1.6
[7]; 25.0 mg/kg i.p., 120 min
  Stereotypy, average score: 1.0
[7]; 25.0 mg/kg i.p., 180 min
  Stereotypy, average score: 0.8
[7]; 25.0 mg/kg i.p., 240 min
  Stereotypy, average score: 0.4
[7]; 25.0 mg/kg p.o., 15 min
  Stereotypy, average score: 0.7
[7]; 25.0 mg/kg p.o., 30 min
  Stereotypy, average score: 1.1
[7]; 25.0 mg/kg p.o., 60 min
  Stereotypy, average score: 1.5
[7]; 25.0 mg/kg p.o., 90 min
  Stereotypy, average score: 0.6
[7]; 25.0 mg/kg p.o., 120 min
  Stereotypy, average score: 0.6
[7]; 25.0 mg/kg p.o., 180 min
  Stereotypy, average score: 0.3
[7]; 25.0 mg/kg p.o., 240 min
  Stereotypy, average score: 0
[7]; 50.0 mg/kg i.p., 15 min
  Stereotypy, average score: 1.5
[7]; 50.0 mg/kg i.p., 30 min
  Stereotypy, average score: 2.1
[7]; 50.0 mg/kg i.p., 60 min
  Stereotypy, average score: 2.7
[7]; 50.0 mg/kg i.p., 90 min
  Stereotypy, average score: 2.4
[7]; 50.0 mg/kg i.p., 120 min
  Stereotypy, average score: 2.4
[7]; 50.0 mg/kg i.p., 180 min
  Stereotypy, average score: 1.7
[7]; 50.0 mg/kg i.p., 240 min
  Stereotypy, average score: 0.6
[7]; 50.0 mg/kg p.o., 15 min
  Stereotypy, average score: 1.7
[7]; 50.0 mg/kg p.o., 30 min
  Stereotypy, average score: 1.9
[7]; 50.0 mg/kg p.o., 60 min
  Stereotypy, average score: 2.3
[7]; 50.0 mg/kg p.o., 90 min
  Stereotypy, average score: 2.3
[7]; 50.0 mg/kg p.o., 120 min
  Stereotypy, average score: 1.9
[7]; 50.0 mg/kg p.o., 180 min
  Stereotypy, average score: 1.1
[7]; 50.0 mg/kg p.o., 240 min
  Stereotypy, average score: 0.2
[7]; rats
  Stereotypy (in words): causes stereotypy. This effect develops earlier but it is somewhat weaker than the effect of bromocriptine
